Data from patent US9458137B2, “Substituted indol-5-ol derivatives and their therapeutical applications” (NantBioScience, Inc., priority 2012, dated 2016).

Legend:
Assay in all cases: Kinase panel activity
Format in all cases: biochemical
Details in all cases: 0.1 μM, ATP Km
[1] = molecular target: T1, DYRK2(h) (Homo sapiens, UniProt Q92630)
T1 construct: purchased Millipore (KinaseProfiler service)
Procedure: (§1) The effect of NTW-3475 on kinase activity was tested for a wide range of kinases and is shown in Table 2: Summary Sheet, Activity % ATP Concentration: Km

[2] = molecular target: CHK2(R145W)(h) (Homo sapiens, UniProt O96017, R145W)
Procedure: as §1

[3] = molecular target: ASK1(h) (Homo sapiens, UniProt Q99683)
Procedure: as §1

[4] = molecular target: IRAK4(h) (Homo sapiens, UniProt Q9NWZ3)
Procedure: as §1

[5] = molecular target: Pim-2(h) (Homo sapiens, UniProt Q9P1W9)
Procedure: as §1

[6] = molecular target: Lck(h) activated (Homo sapiens, UniProt P06239)
Procedure: as §1

[7] = molecular target: BRK(h) (Homo sapiens, UniProt Q13882)
Procedure: as §1

[8] = molecular target: T2, Met(D1246N)(h) (Homo sapiens, UniProt P08581, D1228N)
T2 construct: purchased Millipore (KinaseProfiler service)
Procedure: as §1

[9] = molecular target: T3, MARK1(h) (Homo sapiens, UniProt Q9P0L2)
T3 construct: purchased Millipore (KinaseProfiler service)
Procedure: as §1

[10] = molecular target: Txk(h) (Homo sapiens, UniProt P42681)
Procedure: as §1

[11] = molecular target: ALK(h) (Homo sapiens, UniProt Q9UM73)
Procedure: as §1

[12] = molecular target: JNK1α1(h) (Homo sapiens, UniProt P45983)
Procedure: as §1

[13] = molecular target: Haspin(h) (Homo sapiens, UniProt Q8TF76)
Procedure: as §1

[14] = molecular target: GSK3α(h) (Homo sapiens, UniProt P49840)
Procedure: as §1

[15] = molecular target: VRK2(h) (Homo sapiens, UniProt Q86Y07)
Procedure: as §1

[16] = molecular target: 1tk(h) (Homo sapiens, UniProt Q08881)
Procedure: as §1

[17] = molecular target: T4, MRCKβ(h) (Homo sapiens, UniProt Q9Y5S2)
T4 construct: purchased Millipore (KinaseProfiler service)
Procedure: as §1

[18] = molecular target: ULK3(h) (Homo sapiens, UniProt Q6PHR2)
Procedure: as §1

[19] = molecular target: T5, SAPK4(h) (Homo sapiens, UniProt O15264)
T5 construct: purchased Millipore (KinaseProfiler service)
Procedure: as §1

[20] = molecular target: F1t3(h) (Homo sapiens, UniProt P36888)
Procedure: as §1

[21] = molecular target: T6, Rse(h) (Homo sapiens, UniProt Q06418)
T6 construct: purchased Millipore (KinaseProfiler service)
Procedure: as §1

[22] = molecular target: T7, eEF-2K(h) (Homo sapiens, UniProt O00418)
T7 construct: purchased Millipore (KinaseProfiler service)
Procedure: as §1

[23] = molecular target: T8, MAPKAP-K2(h) (Homo sapiens, UniProt P49137)
T8 construct: purchased Millipore (KinaseProfiler service)
Procedure: as §1

[24] = molecular target: mTOR/FKBP12(h) (Homo sapiens, UniProt P42345)
Procedure: as §1

[25] = molecular target: T9, Rsk4(h) (Homo sapiens, UniProt Q9UK32)
T9 construct: purchased Millipore (KinaseProfiler service)
Procedure: as §1

[26] = molecular target: PKCβII(h) (Homo sapiens, UniProt P05771)
Procedure: as §1

[27] = molecular target: PDGFRβ(h) (Homo sapiens, UniProt P09619)
Procedure: as §1

[28] = molecular target: Ab1(m) (Mus musculus, UniProt P00520)
Procedure: as §1

[29] = molecular target: JAK2(h) (Homo sapiens, UniProt O60674)
Procedure: as §1

[30] = molecular target: CK2(h) (Homo sapiens, UniProt P68400)
Procedure: as §1

[31] = molecular target: F1t4(h) (Homo sapiens, UniProt P35916)
Procedure: as §1

[32] = molecular target: T10, TLK2(h) (Homo sapiens, UniProt Q86UE8)
T10 construct: purchased Millipore (KinaseProfiler service)
Procedure: as §1

[33] = molecular target: T11, EphA5(h) (Homo sapiens, UniProt P54756)
T11 construct: purchased Millipore (KinaseProfiler service)
Procedure: as §1

[34] = molecular target: Arg(h) (Homo sapiens, UniProt P42684)
Procedure: as §1

[35] = molecular target: PKD2(h) (Homo sapiens, UniProt Q9BZL6)
Procedure: as §1

[36] = molecular target: ULK2(h) (Homo sapiens, UniProt Q8IYT8)
Procedure: as §1

[37] = molecular target: T12, Met(Y1248C)(h) (Homo sapiens, UniProt P08581, Y1230C)
T12 construct: purchased Millipore (KinaseProfiler service)
Procedure: as §1

[38] = molecular target: AMPKα1(h) (Homo sapiens, UniProt Q13131)
Procedure: as §1

[39] = molecular target: GCK(h) (Homo sapiens, UniProt Q12851)
Procedure: as §1

[40] = molecular target: MAPK1(h) (Homo sapiens, UniProt P27361)
Procedure: as §1

Sequence of PDGFRβ(h) (P09619 33-1106): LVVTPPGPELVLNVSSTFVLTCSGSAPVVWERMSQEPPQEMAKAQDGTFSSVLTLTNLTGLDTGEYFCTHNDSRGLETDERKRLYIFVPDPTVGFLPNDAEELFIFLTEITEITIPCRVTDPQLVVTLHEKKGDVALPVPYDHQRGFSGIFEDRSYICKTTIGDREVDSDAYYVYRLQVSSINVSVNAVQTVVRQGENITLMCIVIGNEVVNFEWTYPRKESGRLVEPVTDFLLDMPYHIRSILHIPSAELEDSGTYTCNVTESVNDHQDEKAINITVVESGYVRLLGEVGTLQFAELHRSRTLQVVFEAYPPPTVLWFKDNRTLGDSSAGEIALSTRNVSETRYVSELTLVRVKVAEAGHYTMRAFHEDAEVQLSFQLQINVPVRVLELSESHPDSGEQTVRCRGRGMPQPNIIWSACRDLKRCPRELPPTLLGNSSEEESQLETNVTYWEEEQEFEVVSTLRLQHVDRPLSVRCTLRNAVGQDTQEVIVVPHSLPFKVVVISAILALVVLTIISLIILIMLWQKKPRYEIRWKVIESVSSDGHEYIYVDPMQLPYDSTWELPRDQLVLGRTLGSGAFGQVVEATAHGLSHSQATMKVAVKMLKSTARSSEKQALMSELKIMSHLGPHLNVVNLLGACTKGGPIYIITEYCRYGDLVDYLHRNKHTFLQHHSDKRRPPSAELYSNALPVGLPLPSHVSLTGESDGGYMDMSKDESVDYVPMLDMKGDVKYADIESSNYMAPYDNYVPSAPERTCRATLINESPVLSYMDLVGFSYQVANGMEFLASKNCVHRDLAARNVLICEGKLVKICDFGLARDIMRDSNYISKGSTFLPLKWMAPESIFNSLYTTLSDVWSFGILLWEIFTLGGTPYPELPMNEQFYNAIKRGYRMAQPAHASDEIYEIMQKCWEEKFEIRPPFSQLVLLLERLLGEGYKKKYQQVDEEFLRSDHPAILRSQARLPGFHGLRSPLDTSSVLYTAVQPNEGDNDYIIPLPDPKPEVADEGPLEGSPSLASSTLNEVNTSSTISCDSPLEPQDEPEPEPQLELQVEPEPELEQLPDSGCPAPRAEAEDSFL
Sequence of GSK3α(h) (P49840 whole entry): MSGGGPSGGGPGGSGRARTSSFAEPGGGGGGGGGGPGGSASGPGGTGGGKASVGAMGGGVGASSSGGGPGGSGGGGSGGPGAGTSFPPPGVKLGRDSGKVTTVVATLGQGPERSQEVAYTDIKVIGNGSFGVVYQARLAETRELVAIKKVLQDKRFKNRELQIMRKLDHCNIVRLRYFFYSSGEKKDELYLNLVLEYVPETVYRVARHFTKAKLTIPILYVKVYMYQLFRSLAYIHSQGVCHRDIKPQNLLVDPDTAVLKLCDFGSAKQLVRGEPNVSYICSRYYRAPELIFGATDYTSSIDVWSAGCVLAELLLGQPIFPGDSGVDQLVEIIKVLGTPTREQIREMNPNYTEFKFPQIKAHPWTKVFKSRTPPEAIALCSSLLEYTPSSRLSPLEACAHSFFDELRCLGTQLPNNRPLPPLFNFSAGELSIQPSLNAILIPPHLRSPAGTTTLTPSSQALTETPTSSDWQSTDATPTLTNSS
Sequence of VRK2(h) (Q86Y07 whole entry): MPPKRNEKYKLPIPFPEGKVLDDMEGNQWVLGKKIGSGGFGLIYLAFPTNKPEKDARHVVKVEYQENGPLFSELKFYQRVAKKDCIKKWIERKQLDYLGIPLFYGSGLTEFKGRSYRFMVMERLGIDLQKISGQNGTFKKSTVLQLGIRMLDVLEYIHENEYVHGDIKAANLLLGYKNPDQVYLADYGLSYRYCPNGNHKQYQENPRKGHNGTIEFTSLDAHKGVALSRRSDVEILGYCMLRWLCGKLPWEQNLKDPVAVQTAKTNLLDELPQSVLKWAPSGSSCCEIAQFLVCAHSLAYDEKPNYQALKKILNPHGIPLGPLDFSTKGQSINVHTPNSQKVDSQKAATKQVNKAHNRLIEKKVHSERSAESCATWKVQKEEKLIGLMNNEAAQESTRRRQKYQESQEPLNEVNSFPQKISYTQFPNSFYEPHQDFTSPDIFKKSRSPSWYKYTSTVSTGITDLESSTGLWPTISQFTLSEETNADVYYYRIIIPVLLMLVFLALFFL
Sequence of JNK1α1(h) (P45983 1-384 isoform P45983-2): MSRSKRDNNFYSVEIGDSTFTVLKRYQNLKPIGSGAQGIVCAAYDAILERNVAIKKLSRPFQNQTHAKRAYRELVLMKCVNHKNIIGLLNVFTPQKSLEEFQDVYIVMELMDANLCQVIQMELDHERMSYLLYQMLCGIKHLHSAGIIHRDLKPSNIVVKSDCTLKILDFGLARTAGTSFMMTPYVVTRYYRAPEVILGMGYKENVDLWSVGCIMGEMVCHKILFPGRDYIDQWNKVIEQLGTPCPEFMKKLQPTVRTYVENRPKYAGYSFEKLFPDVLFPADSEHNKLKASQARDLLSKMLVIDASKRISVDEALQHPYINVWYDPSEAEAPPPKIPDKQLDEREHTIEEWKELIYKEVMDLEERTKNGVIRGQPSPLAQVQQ
T8 sequence (P49137 whole entry): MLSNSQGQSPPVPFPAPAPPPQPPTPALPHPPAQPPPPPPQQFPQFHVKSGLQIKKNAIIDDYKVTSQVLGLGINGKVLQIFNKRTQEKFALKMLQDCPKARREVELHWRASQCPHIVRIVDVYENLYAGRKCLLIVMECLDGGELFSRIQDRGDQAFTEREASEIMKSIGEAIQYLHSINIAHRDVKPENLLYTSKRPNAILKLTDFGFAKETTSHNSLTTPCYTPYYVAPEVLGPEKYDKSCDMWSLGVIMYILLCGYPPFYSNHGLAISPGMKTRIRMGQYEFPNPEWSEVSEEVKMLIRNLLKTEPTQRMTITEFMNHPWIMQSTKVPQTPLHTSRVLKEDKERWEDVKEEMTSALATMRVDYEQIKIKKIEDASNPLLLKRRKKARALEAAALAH
Sequence of ASK1(h) (Q99683 whole entry): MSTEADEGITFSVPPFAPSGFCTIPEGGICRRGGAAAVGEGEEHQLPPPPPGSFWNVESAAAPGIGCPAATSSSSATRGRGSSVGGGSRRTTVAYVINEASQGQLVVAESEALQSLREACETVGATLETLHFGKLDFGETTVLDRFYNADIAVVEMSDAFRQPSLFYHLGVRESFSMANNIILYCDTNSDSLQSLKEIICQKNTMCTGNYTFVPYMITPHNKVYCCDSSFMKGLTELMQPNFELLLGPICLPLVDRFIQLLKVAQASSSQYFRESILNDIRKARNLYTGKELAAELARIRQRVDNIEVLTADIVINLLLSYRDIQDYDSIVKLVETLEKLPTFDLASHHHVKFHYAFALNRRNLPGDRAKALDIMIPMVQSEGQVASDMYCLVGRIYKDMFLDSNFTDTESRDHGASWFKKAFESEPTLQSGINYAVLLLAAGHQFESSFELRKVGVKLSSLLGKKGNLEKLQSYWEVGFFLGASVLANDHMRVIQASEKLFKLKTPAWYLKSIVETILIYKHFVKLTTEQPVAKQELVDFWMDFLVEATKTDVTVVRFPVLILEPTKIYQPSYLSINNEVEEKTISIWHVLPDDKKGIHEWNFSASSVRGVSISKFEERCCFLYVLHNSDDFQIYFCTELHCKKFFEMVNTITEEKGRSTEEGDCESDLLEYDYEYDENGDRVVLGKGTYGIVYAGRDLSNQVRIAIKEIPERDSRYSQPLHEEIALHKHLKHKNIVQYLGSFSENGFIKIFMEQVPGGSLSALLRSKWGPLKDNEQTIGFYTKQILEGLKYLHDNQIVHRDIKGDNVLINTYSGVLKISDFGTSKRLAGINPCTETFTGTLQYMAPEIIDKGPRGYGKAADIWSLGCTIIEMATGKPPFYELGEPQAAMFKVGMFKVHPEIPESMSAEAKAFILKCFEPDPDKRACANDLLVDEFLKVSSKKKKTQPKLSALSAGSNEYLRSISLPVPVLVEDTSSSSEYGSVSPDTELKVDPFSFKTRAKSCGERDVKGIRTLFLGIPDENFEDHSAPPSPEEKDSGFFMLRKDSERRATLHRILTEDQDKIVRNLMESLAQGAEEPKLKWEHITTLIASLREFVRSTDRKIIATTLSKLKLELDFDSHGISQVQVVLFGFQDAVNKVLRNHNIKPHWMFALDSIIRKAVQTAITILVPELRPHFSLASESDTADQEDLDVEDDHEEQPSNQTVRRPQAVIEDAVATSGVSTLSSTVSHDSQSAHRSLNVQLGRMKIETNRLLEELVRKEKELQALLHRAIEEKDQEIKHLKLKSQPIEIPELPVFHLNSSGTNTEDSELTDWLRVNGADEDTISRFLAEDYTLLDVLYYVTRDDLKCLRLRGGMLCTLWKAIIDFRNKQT
Sequence of PKCβII(h) (P05771 1-673 isoform P05771-2): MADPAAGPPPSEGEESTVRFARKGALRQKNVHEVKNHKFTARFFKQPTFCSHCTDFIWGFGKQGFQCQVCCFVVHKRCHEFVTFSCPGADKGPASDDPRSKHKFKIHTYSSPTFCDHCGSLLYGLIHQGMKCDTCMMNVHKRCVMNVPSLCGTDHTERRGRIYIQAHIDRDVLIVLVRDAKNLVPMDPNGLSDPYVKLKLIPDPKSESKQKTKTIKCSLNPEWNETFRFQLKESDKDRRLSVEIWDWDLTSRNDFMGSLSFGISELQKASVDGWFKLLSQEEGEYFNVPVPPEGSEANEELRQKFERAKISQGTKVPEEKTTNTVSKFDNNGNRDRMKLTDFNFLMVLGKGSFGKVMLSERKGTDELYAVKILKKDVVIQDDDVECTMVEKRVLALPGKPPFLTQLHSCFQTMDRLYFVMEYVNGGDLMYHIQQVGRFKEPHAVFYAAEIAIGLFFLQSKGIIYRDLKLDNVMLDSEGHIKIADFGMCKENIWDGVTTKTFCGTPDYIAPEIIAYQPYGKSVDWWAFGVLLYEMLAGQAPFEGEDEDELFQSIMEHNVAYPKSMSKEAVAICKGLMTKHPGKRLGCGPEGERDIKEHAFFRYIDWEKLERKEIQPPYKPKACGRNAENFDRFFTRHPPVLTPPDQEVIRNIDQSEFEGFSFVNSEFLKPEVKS

**Q.** What does the source list for `Cc1cc2c(F)c(Oc3nc(Nc4cc(C5CC5)[nH]n4)cc(N4CCN(C)CC4)n3)cc(F)c2[nH]1` [NTW-3475]?
**A.** Activity % [1]: 96%; Activity % [2]: 91%; Activity % [3]: 112%; Activity % [4]: 67%; Activity % [5]: 96%; Activity % [6]: −1%; Activity % [7]: 33%; Activity % [8]: 20%; Activity % [9]: 28%; Activity % [10]: 20%; Activity % [11]: 17%; Activity % [12]: 92%; Activity % [13]: 96%; Activity % [14]: 96%; Activity % [15]: 99%; Activity % [16]: 29%; Activity % [17]: 108%; Activity % [18]: 11%; Activity % [19]: 91%; Activity % [20]: 1%; Activity % [21]: 55%; Activity % [22]: 86%; Activity % [23]: 105%; Activity % [24]: 63%; Activity % [25]: 66%; Activity % [26]: 109%; Activity % [27]: 89%; Activity % [28]: −2%; Activity % [29]: 8%; Activity % [30]: 85%; Activity % [31]: 0%; Activity % [32]: 5%; Activity % [33]: 122%; Activity % [34]: −3%; Activity % [35]: 94%; Activity % [36]: 46%; Activity % [37]: 20%; Activity % [38]: 17%; Activity % [39]: 13%; Activity % [40]: 128%
